Experimental data from patent publication US7141586B2, “Nicotinamide derivatives useful as PDE4 inhibitors” (Pfizer Inc., priority 2003, dated 2006).

What was measured:
[1] = tested on: TNFα release from human peripheral blood mononuclear cells; experiment: Inhibition of LPS-stimulated TNFα release from human peripheral blood mononuclear cells (TNFα screen); format: cell-based; conditions: human PBMC stimulated with lipopolysaccharide, 18 hours incubation, TNFα in supernatant by ELISA
Experimental: Venous blood is collected from healthy volunteers and the mononuclear cells purified by centrifugation through Histopaque (Ficoll) cushions. TNFα production from these cells is stimulated by addition of lipopolysaccharide. After 18 hours incubation in the presence of LPS, the cell supernatant is removed and the concentration of TNFα in the supernatant determined by ELISA. Addition of PDE4 inhibitors reduces the amount of TNFα produced. An IC50 is determined which is equal to the concentration of compound that gives 50% inhibition of TNFα production as compared to the LPS stimulated control wells.

melting point | Molecule | IC50 [1]
 | Syn-5-fluoro-N-[4-(5-chloro-2-hydroxy-benzoylamino)-cyclohexyl]-2-(3-methylsulfanyl-phenoxy)-nicotinamide [Example 5] | 0.15 nM
99 to 101 °C | CSc1cccc(Oc2ncc(F)cc2C(=O)N[C@H]2CCCC[C@H]2O)c1 (relative stereo) [Example 31, 5-Fluoro-N-[cis-2-hydroxy-cyclohexyl]-2-(3-methylsulfanyl-phenoxy)-nicotinamide] | 
 | Syn-5-fluoro-N-[4-(2-hydroxy-benzoylamino)-cyclohexyl]-2-(3-methylsulfanyl-phenoxy)-nicotinamide [Example 11] | 0.05 nM
 | Syn-5-fluoro-N-{4-[(4-methyl-1H-imidazole-2-carbonyl)-amino]-cyclohexyl}-2-(3-methylsulfanyl-phenoxy)-nicotinamide [Example 4] | 0.15 nM
128 to 129 °C | CSc1cccc(Oc2ncc(F)cc2C(=O)N[C@H]2CCCC[C@@H]2CO)c1 (relative stereo) [Example 56, 5-Fluoro-N-[trans-2-hydroxymethyl-cyclohexyl]-2-(3-methylsulfanyl-phenoxy)-nicotinamide] | 
 | Syn-5-fluoro-N-[4-(4-hydroxy-2-methoxy-benzoylamino)-cyclohexyl]-2-(3-methylsulfanyl-phenoxy)-nicotinamide [Example 22] | 0.07 nM
 | Syn-5-fluoro-2-(3-methylsulfanyl-phenoxy)-N-{4-[(2,3-dimethyl-1H-pyrazole-5-carbonyl)-amino]-cyclohexyl}-nicotinamide [Example 3] | 0.37 nM
123 to 126 °C | CSc1cccc(Oc2ncc(F)cc2C(=O)N[C@H]2CC[C@@H](CO)CC2)c1 [Example 60, 5-Fluoro-N-(cis-4-hydroxymethyl-cyclohexyl)-2-(3-methylsulfanyl-phenoxy)-nicotinamide] | 
 | CSc1cccc(Oc2ncc(F)cc2C(=O)N[C@H]2CC[C@@H](NC(=O)c3cc(C)ccc3O)CC2)c1 [Example 1, Syn-5-Fluoro N-[4-(2-hydroxy-5-methyl-benzoylamino)-cyclohexyl]-2-(3-methylsulfanyl-phenoxy)-nicotinamide] | 0.4 nM
 | Syn-5-fluoro-N-[4-(2-hydroxy-4-methyl-benzoylamino)-cyclohexyl]-2-(3-methylsulfanyl-phenoxy)-nicotinamide [Example 10] | 0.05 nM
 | Syn-5-fluoro-N-{4-[(1H-imidazole-5-carbonyl)-amino]-cyclohexyl}-2-(3-methylsulfanyl-phenoxy)-nicotinamide [Example 18] | 0.6 nM
